Measured values from patent US12018049B2, “Compositions and related methods for controlling vector-borne diseases” (priority 2017, dated 2024).

How the values were obtained:
[1] = test system: Anopheles coluzzii mosquitoes; assay: Mosquito survival after azithromycin blood meals; type: in vivo; details: blood meals with 0.1, 1 or 5 μg/ml azithromycin; vs negative control
Asaia = Asaia quantification by qPCR in mosquito midguts; type: in vivo, Anopheles coluzzii; details: blood meals with 0.1, 1 or 5 μg/ml azithromycin, three meals; vs control
[2] = test system: Sitophilus zeamais weevils; assay: Weevil survival; type: in vivo; details: adult mating pairs; 250 μg/ml or 2.5 mg/ml ciprofloxacin; 18 days
Experimental: (§1) Sitophilus maize weevils (Sitophilus zeamais) were reared on organic corn at 27.5° C. and 70% relative humidity. Prior to being used for weevil rearing, corn was frozen for 7 days and then tempered to 10% humidity with sterile water. […] Ciprofloxacin (Sigma) stock solutions were made at 25 mg/ml in 0.1 N HCl, sterilized by passing through a 0.22 μm syringe filter, and stored at −20° C. For treatments, the appropriate amount of stock solution was diluted in sterile water.
(§2) Weevil survival was monitored daily for 18 days, after which DNA was extracted from the remaining weevils in each group. Briefly, the weevil body was surface sterilized by dipping the weevil into a 6% bleach solution for approximately 5 seconds. Weevils were then rinsed in sterile water and DNA was extracted from each individual […] using a DNA extraction kit (Qiagen, DNeasy kit) according to manufacturer's instructions. […]; SEQ ID NO: 245). […]; SEQ ID NO: 247) (Login et al., 2011). qPCR was performed using a qPCR amplification ramp of 1.6 degrees C./s and the following conditions: 1) 95° C. for 10 minutes, 2) 95° C. for 15 seconds, 3) 57° C. for 30 seconds, 4) repeat steps 2-3 40×, 5) 95° C. for 15 seconds, 6) 55° C. for 1 minute, 7) ramp change to 0.15 degrees C./s, 8) 95° C. for 1 second. qPCR data was analyzed using analytic (Thermo Fisher Scientific, QuantStudio Design and Analysis) software.

[3] = test system: Sitophilus primary endosymbiont (SPE, Candidatus Sodalis pierantonius); assay: SPE levels in weevils by qPCR; type: in vivo, Sitophilus zeamais; details: for SPE amount, fold higher in water-treated than in treated weevils: F0 adults, 18 days
Experimental: as §1, §2

E. coli DH5a = assay: Antibiotic coating and penetration of corn kernels (E. coli growth on LB plates); type: cell-based, Escherichia coli; details: kernels soaked 1.5 hours in 2.5 or 0.25 mg/ml ciprofloxacin
[4] = test system: Sitophilus zeamais weevils; assay: Weevil reproduction (emergence of F1 offspring); details: 2.5 mg/ml ciprofloxacin; till day 43
Buchnera = assay: Buchnera/aphid DNA copy number by qPCR; type: in vivo, Acyrthosiphon pisum
[5] = test system: Acyrthosiphon pisum aphids; assay: Aphid survival monitored daily; type: in vivo
[6] = test system: Acyrthosiphon pisum aphids; assay: Aphid fecundity (offspring counts); type: in vivo; details: eNASCO, control approximately 7
Experimental: (§3) In addition, the developmental stage (1st, 2nd, 3rd, 4th, 5th instar) was determined daily throughout the experiment. Once an aphid reached the 4th instar stage, they were given their own artificial feeding system in a deep petri dish so that fecundity could be monitored once they reached adulthood.
For adult aphids, new nymphs were counted daily and then discarded. At the end of the experiments, fecundity was determined as the mean number of offspring produced daily once the aphid reached adulthood. Pictures of aphids were taken throughout the experiment to evaluate size differences between treatment groups.
as §3, with “5th, and 5R (5th that has reproduced)” for “5th”
For adult aphids, new nymphs were counted daily and then discarded. At the end of the experiments, fecundity was measured in two ways: 1) the mean day at which the first offspring for the treatment group was determined and 2) the mean number of offspring produced daily once the aphid reached adulthood. […]
In addition, the developmental stage (1st, 2nd, 3rd, 4th, 5th instar) was determined daily throughout the experiment. […]

[7] = LSR-1, through plants, artificial diet without essential amino acids + 100 μg/ml rifampicin

CC[C@H]1OC(=O)[C@H](C)[C@@H](O[C@H]2C[C@@](C)(OC)[C@@H](O)[C@H](C)O2)[C@H](C)[C@@H](O[C@@H]2O[C@H](C)C[C@H](N(C)C)[C@H]2O)[C@](C)(O)C[C@@H](C)CN(C)[C@H](C)[C@@H](O)[C@]1(C)O [azithromycin]
survival rate of mosquitoes [1]: decreased compared to the control
Asaia specific genes (16S rDNA relative to S7, qPCR) (Asaia): reduction of Asaia specific genes

O=C(O)c1cn(C2CC2)c2cc(N3CCNCC3)c(F)cc2c1=O [ciprofloxacin]
weevil survival [2]: all weevils remained alive
SPE amount, fold higher in water-treated than in treated weevils ([3]; 250 ug/ml ciprofloxacin): approximately 4 fold
SPE amount, fold higher in water-treated than in treated weevils ([3]; 2.5 mg/ml ciprofloxacin): ~8 fold
SPE levels, fold higher in water-treated than in treated F1 weevils ([3]; F1 weevils dissected from kernels, 2.5 mg/ml ciprofloxacin): approximately 4 fold
bacterial growth on plate with entire soaked corn kernel (E. coli DH5a): no bacteria grew
F1 offspring emerged [4]: much less offspring

Cc1cc2c(C(C)C)c(O)c(O)c(C=O)c2c(O)c1-c1c(C)cc2c(C(C)C)c(O)c(O)c(C=O)c2c1O [gossypol, gossypol acetic acid]
Buchnera/aphid DNA copies, fold less than control (Buchnera; through plants, 0.25 and 0.5% gossypol, 5 or 13 days): ~4 fold
time after which aphids began dying ([5]; through plants, 0.5% gossypol): 2 days

CC(=O)CCC(=O)O [levulinic acid]
Buchnera/aphid DNA copies, fold less than control (Buchnera; eNASCO, 0.03 or 0.3% levulinic acid in water, 7 days): ~6 fold
survival of aphids ([5]; eNASCO, 0.3% levulinic acid, 11-day experiment): survival was significantly less

CC(C)(CO)[C@@H](O)C(=O)NCCCO [pantothenol]
Buchnera/aphid DNA copy number (Buchnera; eNASCO, 10 or 100 uM pantothenol, 8 days): does not affect Buchnera/aphid DNA copy number directly
mean number of offspring per day ([6]; 10 uM pantothenol): approximately 4 offspring/day
mean number of offspring per day ([6]; 100 uM pantothenol): ~5 offspring/day
survival rate of aphids ([5]; eNASCO, leaf coating, 10 uM pantothenol, p=0.0019): lower survival rates than aphids placed on coated leaves with the control solution
survival rate of aphids ([5]; eNASCO, through plants, 10 or 100 uM pantothenol): negatively affected aphid fitness

CO[C@H]1/C=C/O[C@@]2(C)Oc3c(C)c(O)c4c(O)c(c(/C=N/N5CCN(C)CC5)c(O)c4c3C2=O)NC(=O)/C(C)=C\C=C\[C@H](C)[C@H](O)[C@@H](C)[C@@H](O)[C@@H](C)[C@H](OC(C)=O)[C@@H]1C [rifampicin]
Buchnera/aphid DNA copies, fold less than control (Buchnera; LSR-1, through plants, 100 μg/ml rifampicin, 7 days): ~4 fold
time after which aphids began dying [5, 7]: 1 days
time by which all aphids succumbed to treatment [5, 7]: ≤ 9 days

O=C/C=C/c1ccccc1 [trans-cinnemaldehyde]
Buchnera/aphid DNA copies, fold less than control (Buchnera; LSR-1, 0.5 and 5% trans-cinnemaldehyde, 3 days): ~870 fold
survival rates of aphids ([5]; LSR-1, 0.05%, 0.5%, and 5% trans-cinnemaldehyde, vs water): significantly lower
